Assay results as given in ChEMBL document CHEMBL4145472, “Novel donepezil-like N-benzylpyridinium salt derivatives as AChE inhibitors and their corresponding dihydropyridine "bio-oxidizable" prodrugs: Synthesis, biological evaluation and structure-activity relationship” (Eur J Med Chem, 2018).

Assays:
[1] = Selectivity index, ratio of IC50 for equine serum BChE to IC50 for human erythrocyte AChE
[2] = biological target: Cholinesterase (Equus caballus) (UniProt P81908); test: Inhibition of equine serum BChE using butyrylthiocholine iodide as substrate at 10 uM preincubated for 5 mins followed by substrate addition measured every minute for 10 mins by Ellman's method relative to control
Sequence of Cholinesterase (Equus caballus) (P81908 whole entry): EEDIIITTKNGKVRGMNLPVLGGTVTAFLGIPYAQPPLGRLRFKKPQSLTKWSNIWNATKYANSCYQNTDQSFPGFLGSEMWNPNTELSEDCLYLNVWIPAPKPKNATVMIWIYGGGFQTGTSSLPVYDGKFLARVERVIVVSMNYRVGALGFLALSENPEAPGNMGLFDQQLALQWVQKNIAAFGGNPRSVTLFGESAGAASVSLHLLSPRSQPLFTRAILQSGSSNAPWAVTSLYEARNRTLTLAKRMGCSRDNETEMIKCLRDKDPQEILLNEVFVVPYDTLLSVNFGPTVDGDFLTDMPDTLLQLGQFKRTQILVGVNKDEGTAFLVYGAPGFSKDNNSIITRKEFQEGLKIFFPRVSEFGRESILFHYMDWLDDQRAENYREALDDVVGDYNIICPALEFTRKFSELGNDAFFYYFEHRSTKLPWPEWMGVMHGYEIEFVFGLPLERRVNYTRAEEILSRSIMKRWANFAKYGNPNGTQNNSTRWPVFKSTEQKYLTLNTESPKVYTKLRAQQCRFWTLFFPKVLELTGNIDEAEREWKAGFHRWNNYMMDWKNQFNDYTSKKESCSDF

[3] = biological target: T1, Acetylcholinesterase (Homo sapiens, UniProt P22303); test: Inhibition of human erythrocyte AChE using acetylthiocholine iodide as substrate at 10 uM preincubated for 5 mins followed by substrate addition measured every minute for 10 mins by Ellman's method relative to control
T1 sequence (P22303 whole entry): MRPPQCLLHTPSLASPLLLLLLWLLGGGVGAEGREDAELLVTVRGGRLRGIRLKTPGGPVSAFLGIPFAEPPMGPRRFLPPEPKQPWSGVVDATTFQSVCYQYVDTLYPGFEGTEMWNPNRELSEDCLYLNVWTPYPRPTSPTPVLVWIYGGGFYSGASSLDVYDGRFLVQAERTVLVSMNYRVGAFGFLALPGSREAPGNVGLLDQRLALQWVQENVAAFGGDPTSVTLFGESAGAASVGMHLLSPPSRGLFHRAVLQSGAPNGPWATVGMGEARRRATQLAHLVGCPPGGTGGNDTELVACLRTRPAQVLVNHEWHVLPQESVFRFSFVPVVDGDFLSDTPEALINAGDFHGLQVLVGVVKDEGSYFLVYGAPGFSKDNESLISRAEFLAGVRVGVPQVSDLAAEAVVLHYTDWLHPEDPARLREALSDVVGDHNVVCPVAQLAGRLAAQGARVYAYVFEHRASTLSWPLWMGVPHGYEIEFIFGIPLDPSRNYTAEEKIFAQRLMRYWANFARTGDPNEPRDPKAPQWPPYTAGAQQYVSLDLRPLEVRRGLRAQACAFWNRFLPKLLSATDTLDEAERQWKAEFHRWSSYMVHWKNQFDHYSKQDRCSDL

[4] = biological target: T1, Acetylcholinesterase; test: Inhibition of human erythrocyte AChE using acetylthiocholine iodide as substrate preincubated for 5 mins followed by substrate addition measured every minute for 10 mins by Ellman's method
[5] = biological target: Cholinesterase (Equus caballus, UniProt P81908)
Sequence of Cholinesterase (P81908 whole entry): as the sequence (P81908 whole entry) above
Description: Inhibition of equine serum BChE using butyrylthiocholine iodide as substrate preincubated for 5 mins followed by substrate addition measured every minute for 10 mins by Ellman's method

[6] = Effective permeability of compound at 100 uM at pH 7.4 by PAMPA; format: ADME; settings: read-out: Peff
[7] = Half life in 2% riboflavine solution in PBS at 25 uM by HPLC-UV analysis; format: physicochemical; settings: buffer, 25 µM

Compound	Ratio IC50 [1]	IC50 [4]	IC50 [5]	further results
COc1ccc2c(c1)CCC(Cc1cc[n+](Cc3cccc(C)c3)cc1Br)C2=O (stereo not given)	40	–	–	–
COc1cc2c(cc1OC)C(=O)C(CC1C=CN(Cc3cccc(Cl)c3)C=C1C(N)=O)C2 (stereo not given)	–	–	–	inhibition [2]: 6%; inhibition [3]: 29%
COC(=O)C1=CN(Cc2cccc(Cl)c2)C=CC1CCC(=O)c1ccc(OC)c(OC)c1 (stereo not given)	–	> 10 µM	> 10 µM	–
COc1ccc(C(=O)CCc2cc[n+](Cc3cccc(Cl)c3)cc2C#N)cc1OC	191	0.0222 µM	4.24 µM	–
COc1cc2c(cc1OC)C(=O)C(Cc1cc[n+](Cc3nc4ccccc4o3)cc1C(N)=O)C2 (stereo not given)	–	9.27 µM	> 10 µM	–
CC(=O)c1c[n+](Cc2cccc(Cl)c2)ccc1CC1Cc2cc(O)ccc2C1=O (stereo not given)	–	0.116 µM	> 10 µM	–
COc1ccc2c(c1)CCC(CC1C=CN(Cc3ccccc3Cl)C=C1C(C)=O)C2=O (stereo not given)	–	> 10 µM	–	Papp at 100 µM [6]: 21.2 ×10⁻⁶ cm/s
COc1cc2c(cc1OC)C(=O)C(Cc1cc[n+](Cc3ccccc3)cc1Br)C2 (stereo not given)	4970	–	–	–
COc1ccc2c(c1)CCC(CC1C=CN(Cc3ccc(Cl)cc3)C=C1C(C)=O)C2=O (stereo not given)	–	> 10 µM	> 10 µM	–
COc1ccc(C(=O)CCCCc2cc[n+](Cc3cccc(Cl)c3)cc2C(N)=O)cc1OC	–	> 10 µM	> 10 µM	–
COc1ccc(C(=O)CCc2cc[n+](Cc3cccc(F)c3)cc2C#N)cc1OC	–	0.011 µM	> 10 µM	–
COc1ccc(C(=O)CCC2C=CN(Cc3cccc(Cl)c3)C=C2C(C)=O)cc1OC (stereo not given)	–	> 10 µM	> 10 µM	Papp at 100 µM [6]: 18.2 ×10⁻⁶ cm/s
COc1ccc2c(c1)CCC(Cc1cc[n+](Cc3cccc(Cl)c3)cc1C(C)=O)C2=O (stereo not given)	6.9	–	–	–
COc1cc2c(cc1OC)C(=O)C(Cc1cc[n+](Cc3ccc(S(N)(=O)=O)cc3)cc1C(N)=O)C2 (stereo not given)	–	> 10 µM	> 10 µM	–
COc1ccc(C(=O)CCc2cc[n+](Cc3ccccc3C(F)(F)F)cc2C#N)cc1OC	–	0.275 µM	–	–
CC(=O)C1=CN(Cc2cccc(Cl)c2)C=CC1CC1Cc2cc(F)ccc2C1=O (stereo not given)	–	> 10 µM	> 10 µM	–
COc1ccc(C(=O)CCc2cc[n+](Cc3ccc(Cl)cc3)cc2C#N)cc1OC	–	> 10 µM	> 10 µM	–
COc1ccc2c(c1)CCC(Cc1cc[n+](Cc3ccccc3Cl)cc1C(N)=O)C2=O (stereo not given)	6.9	0.379 µM	2.64 µM	–
COc1cc2c(cc1OC)C(=O)C(CC1C=CN(Cc3ccccc3)C=C1C(C)=O)CC2 (stereo in doubt; 24a-C)	–	0.173 µM	1.67 µM	–
COc1ccc(C(=O)CCc2cc[n+](Cc3cccc(Cl)c3)cc2C(C)=O)cc1OC	22.2	0.144 µM	3.2 µM	–
COc1ccc(C(=O)CCC2C=CN(Cc3cccc(Cl)c3)C=C2C#N)cc1OC (stereo not given)	–	0.923 µM	> 10 µM	Papp at 100 µM [6]: 15.1 ×10⁻⁶ cm/s

Compound	Ratio IC50 [1]	IC50 [4]	IC50 [5]	further results
COc1cc2c(cc1OC)C(=O)C(CCCc1cc[n+](Cc3cccc(Cl)c3)cc1C(N)=O)C2 (stereo not given)	–	> 10 µM	3.26 µM	–
COc1cc2c(cc1OC)C(=O)C(CC1C=CN(Cc3ccccc3C)C=C1C(C)=O)C2 (stereo not given)	–	–	–	Papp at 100 µM [6]: 19.1 ×10⁻⁶ cm/s
COC(=O)c1c[n+](Cc2cccc(Cl)c2)ccc1CCC(=O)c1ccc(OC)c(OC)c1	–	0.171 µM	2.03 µM	–
C[C@]12CCC(=O)C=C1CC[C@@H]1[C@@H]2C(=O)C[C@@]2(C)[C@H]1CC[C@]2(O)C(=O)CO [CORTISONE]	–	–	–	Papp at 100 µM [6]: 16.8 to 20.3 ×10⁻⁶ cm/s
COc1ccc2c(c1)CCC(Cc1cc[n+](Cc3ccc(Cl)cc3)cc1C(C)=O)C2=O (stereo not given)	10.7	–	–	–
COc1cc2c(cc1OC)C(=O)C(Cc1cc[n+](Cc3cccc(Cl)c3)cc1C(=O)O)C2 (stereo not given)	–	> 10 µM	> 10 µM	–
COc1cc2c(cc1OC)C(=O)C(CC1C=CN(Cc3ccccc3)C=C1C(C)=O)CC2 (stereo not given) [listing 1 of 2 here]	–	–	–	Papp at 100 µM [6]: 20.4 ×10⁻⁶ cm/s
COc1ccc2c(c1)CCC(Cc1cc[n+](Cc3ccccc3Cl)cc1C(C)=O)C2=O (stereo not given)	8.6	0.0295 µM	–	–
COc1cc2c(cc1OC)C(=O)C(Cc1cc[n+](Cc3cccc(O)c3)cc1C(N)=O)C2 (stereo not given)	–	> 10 µM	5.36 µM	–
COc1ccc2c(c1)CCC(CC1C=CN(Cc3cccc(C)c3)C=C1C(C)=O)C2=O (stereo not given)	–	> 10 µM	–	–
COc1cc2c(cc1O)C(=O)C(Cc1cc[n+](Cc3cccc(Cl)c3)cc1C(C)=O)C2 (stereo not given)	–	0.0027 µM	> 10 µM	–
CC(=O)c1c[n+](Cc2cccc(Cl)c2)ccc1CC1Cc2cc(F)ccc2C1=O (stereo not given)	–	> 10 µM	–	–
COc1ccc2c(c1)CCC(Cc1cc[n+](Cc3cccc(F)c3)cc1C(C)=O)C2=O (stereo not given)	7.5	–	–	–
COC(=O)c1ccccc1C[n+]1ccc(CC2Cc3cc(OC)c(OC)cc3C2=O)c(C(=O)Oc2c(Cl)cc(Cl)cc2Cl)c1 (stereo not given)	5.38	0.0693 µM	0.373 µM	–
COc1ccc2c(c1)CCC(Cc1cc[n+](Cc3ccccc3C)cc1C(F)(F)F)C2=O (stereo not given)	9.2	0.242 µM	2.24 µM	–
COc1cc2c(cc1OC)C(=O)C(CC1C=CN(Cc3ccccc3)C=C1C(C)=O)CC2 (stereo not given) [listing 2 of 2 here]	–	–	–	inhibition [2]: 45%; inhibition [3]: 36%
COc1ccc2c(c1)CCC(CC1C=CN(Cc3cccc(F)c3)C=C1C(C)=O)C2=O (stereo not given)	–	> 10 µM	–	–
CNC(=O)c1c[n+](Cc2ccccc2C)ccc1CC1CCc2cc(OC)ccc2C1=O (stereo not given)	–	> 10 µM	2.51 µM	–
COc1ccc2c(c1)CCC(CC1C=CN(Cc3ccccc3C)C=C1C(N)=O)C2=O (stereo not given)	–	> 10 µM	> 10 µM	Papp at 100 µM [6]: 18.8 ×10⁻⁶ cm/s
COc1ccc2c(c1)CCC(Cc1cc[n+](Cc3ccc(C)cc3)cc1C(C)=O)C2=O (stereo not given)	7.4	–	–	–
COc1ccc2c(c1)CCC(Cc1cc[n+](Cc3ccccc3F)cc1C(C)=O)C2=O (stereo not given)	11	–	–	–

Compound	Ratio IC50 [1]	IC50 [4]	IC50 [5]	further results
COc1ccc2c(c1)CCC(CC1C=CN(Cc3cccc(C(F)(F)F)c3)C=C1C(C)=O)C2=O (stereo not given)	–	> 10 µM	> 10 µM	–
COc1ccc2c(c1)CCC(Cc1cc[n+](Cc3ccccc3C)cc1C(C)=O)C2=O (stereo not given)	43.3	–	–	–
COc1ccc2c(c1)CCC(Cc1cc[n+](Cc3cccc(C(F)(F)F)c3)cc1C(C)=O)C2=O (stereo not given)	18	–	–	–
COc1ccc2c(c1)CCC(CC1C=CN(Cc3ccc(C)cc3)C=C1C(C)=O)C2=O (stereo not given)	–	> 10 µM	> 10 µM	–
COc1ccc(C(=O)CCc2cc[n+](Cc3cccc(Cl)c3)cc2C(N)=O)cc1OC	–	> 10 µM	> 10 µM	–
COc1ccc2c(c1)CCC(CC1C=CN(Cc3ccccc3F)C=C1C(C)=O)C2=O (stereo not given)	–	> 10 µM	–	–
COc1cc2c(cc1OC)C(=O)C(Cc1cc[n+](Cc3cccc(C)n3)cc1C(N)=O)C2 (stereo not given)	–	1.86 µM	> 10 µM	–
COc1cc2c(cc1OC)C(=O)C(CC1C=CN(Cc3cccc(Cl)c3)C=C1C(N)=O)C2 (stereo in doubt; 23h-B)	–	27 µM	19.9 µM	t1/2 [7]: 17.7 min
COc1ccc2c(c1)CCC(Cc1cc[n+](Cc3cccc(C)c3)cc1C(C)=O)C2=O (stereo not given)	5.3	–	–	–
COc1ccc(C(=O)CCc2cc[n+](Cc3cccc(Cl)c3)cc2C(=O)O)cc1OC	–	0.0181 µM	–	–
COc1cc2c(cc1OC)C(=O)C(Cc1cc[n+](Cc3cccc(Cl)c3)cc1C(C)=O)CC2 (stereo not given)	–	0.021 µM	–	–
COc1ccc2c(c1)CCC(Cc1cc[n+](Cc3ccccc3C)cc1C(N)=O)C2=O (stereo not given)	10.2	0.894 µM	9.11 µM	–
COc1cc2c(cc1OC)C(=O)C(Cc1cc[n+](CCc3ccccc3)cc1C(N)=O)C2 (stereo not given)	–	0.896 µM	> 10 µM	–
COc1ccc2c(c1)CCC(Cc1cc[n+](CC3CCCCC3)cc1C(C)=O)C2=O (stereo not given)	1.6	0.21 µM	0.341 µM	–
CC(=O)c1c[n+](Cc2ccccc2C)ccc1CC1Cc2cc(OCC(F)(F)F)ccc2C1=O (stereo not given)	112	0.0371 µM	4.15 µM	–
COc1ccc(C(=O)CCC2C=CN(Cc3cccc(Cl)c3)C=C2C(N)=O)cc1OC (stereo not given)	–	> 10 µM	> 10 µM	Papp at 100 µM [6]: 18.9 ×10⁻⁶ cm/s
COc1cc2c(cc1OC)C(=O)C(CC1C=CN(Cc3ccccc3)C=C1C(C)=O)CC2 (stereo in doubt; 24a-B)	–	0.286 µM	1.83 µM	–
CCC[n+]1ccc(CC2CCc3cc(OC)ccc3C2=O)c(C(C)=O)c1 (stereo not given)	–	> 10 µM	> 10 µM	–
COc1cc2c(cc1OC)C(=O)C(CC1C=CN(Cc3ccccc3)C=C1C(C)=O)CC2 (stereo in doubt; 24a-D)	–	0.924 µM	9.07 µM	–
